Test results reported in patent US20040192738A1, “2-(Butyl-1-sulfonylamino)-N-[1(R)-(6-methoxypyridin-3-yl)propyl] benzamide, its use as a medicament, and pharmaceutical preparations comprising it” (Aventis Pharma Deutschland GmbH, priority 2003, published 2004).
“And” between values parts separate entries of the source, which are not always exact repeats. Identical values can stand only once.

How the values were obtained:
[1] = test system: left atrium of the anesthetized pig; assay: Refractory period and left-atrial vulnerability in the anesthetized pig; format: in vivo; conditions: for % inhibition of the arrhythmias: arrhythmias induced by premature extra-stimulus (S2) in the left atrium, 3 mg/kg; for % inhibition of the arrhythmias / % increase in the refractory period: mean value; for % increase in the refractory period: left atrium, 10 minutes after injection, mean of three rates (150, 200 and 250/min); for antiarrhythmic action: model on the anesthetized pig
Procedure: Investigation of the Refractory Period and the Left-Atrial Vulnerability in the Pig
In the course of this, the refractory period of the left atrium was determined and the antiarrhythmic activity was recorded as described in the literature (Knobloch et al. 2002. Naunyn-Schmiedberg's Arch. Pharmacol. 366; 482-487). The anti-arrhythmic action relates here to the inhibition of the occurrence of episodes of arrhythmias which are induced by a prematurely placed extra-stimulus (S2) in the left atrium (=left-atrial vulnerability).
The refractory period values are stated in percent of the basal values 10 minutes after injection. Mean values for the refractory periods are shown from three rates (150, 200 and 250/min).
By repeated measurement after substance administration, the duration of action of a substance on the refractory period can be determined in this experimental procedure. The R enantiomer was infused intravenously over the course of 100 minutes in a dose of 1 mg/kg and the pharmacological action was determined over the course of 280 minutes.

[2] = Effect on QTc interval and inotropic or hemodynamic side effects; conditions: in vivo
[3] = anesthetized pig, bolus 3 mg/kg

| Compound | % inhibition of the arrhythmias [1, 3] | % increase in the refractory period [1, 3] | antiarrhythmic action ([1]; result in words) | effect on the QTc interval [2] | negative inotropic or hemodynamic side effects [2] | duration of action on the left-atrial refractory period after ending the infusion ([1]; anesthetized pig, 1 mg/kg intravenous infusion over 100 minutes, observed over 280 minutes, FIG. 1) | % inhibition of the arrhythmias ([1]; anesthetized pig, bolus 3 mg/kg, listed as R enantiomer) | prolongation of the refractory period (comparison of enantiomers) ([1]; anesthetized pig, bolus 3 mg/kg, result in words) | melting point |
| --- | --- | --- | --- | --- | --- | --- | --- | --- | --- |
| CCCCS(=O)(=O)Nc1ccccc1C(=O)N[C@@H](CC)c1ccc(OC)nc1 [S enantiomer, 2-(butyl-1-sulfonylamino)-N-[1(S)-(6-methoxypyridin-3-yl)propyl]benzamide] | 27% and 27.3% | 8.8% | more weakly active | – | – | – | – | – | – |
| CCCCS(=O)(=O)Nc1ccccc1C(=O)N[C@H](CC)c1ccc(OC)nc1 [formula I, 2-(butyl-1-sulfonylamino)-N-[1(R)-(6-methoxypyridin-3-yl)propyl]benzamide] | – | 19% | excellent | no effect | no negative inotropic or hemodynamic side effects | ≥ 180 min | 73.9% | markedly greater prolongation of the refractory period than the S enantiomer | 97 °C |
